Experimental data: PMC11649115, “In vitro safety evaluation of dopamine D3R antagonist, R-VK4-116, as a potential medication for the treatment of opioid use disorder” (PLOS ONE, 2024)
Read-outs that look alike come from different tables or passages of the source.

How the values were obtained:
[1] = target: T1, Kir2.1 (Homo sapiens, UniProt P63252); assay: CiPA IonChannelProfiler Cardiac Panel, QPatch; assay type: cell-based; settings: mean of two sample results
T1 sequence (P63252 1-427): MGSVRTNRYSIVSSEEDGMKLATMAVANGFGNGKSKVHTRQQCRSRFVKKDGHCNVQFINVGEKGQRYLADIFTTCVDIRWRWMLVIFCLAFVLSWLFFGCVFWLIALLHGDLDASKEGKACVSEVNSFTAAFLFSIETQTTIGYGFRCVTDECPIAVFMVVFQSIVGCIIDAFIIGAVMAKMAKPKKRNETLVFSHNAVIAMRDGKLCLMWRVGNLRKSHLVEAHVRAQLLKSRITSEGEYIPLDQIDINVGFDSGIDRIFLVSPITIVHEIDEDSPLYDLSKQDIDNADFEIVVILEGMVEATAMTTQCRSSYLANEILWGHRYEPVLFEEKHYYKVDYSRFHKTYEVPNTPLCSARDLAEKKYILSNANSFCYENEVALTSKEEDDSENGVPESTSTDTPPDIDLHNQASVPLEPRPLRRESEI

[2] = target: T2, CYP1A2 (Homo sapiens, UniProt P05177); assay: CYP inhibition in human liver microsomes; settings: human, human liver microsomes, probe phenacetin
T2 sequence (P05177 1-516): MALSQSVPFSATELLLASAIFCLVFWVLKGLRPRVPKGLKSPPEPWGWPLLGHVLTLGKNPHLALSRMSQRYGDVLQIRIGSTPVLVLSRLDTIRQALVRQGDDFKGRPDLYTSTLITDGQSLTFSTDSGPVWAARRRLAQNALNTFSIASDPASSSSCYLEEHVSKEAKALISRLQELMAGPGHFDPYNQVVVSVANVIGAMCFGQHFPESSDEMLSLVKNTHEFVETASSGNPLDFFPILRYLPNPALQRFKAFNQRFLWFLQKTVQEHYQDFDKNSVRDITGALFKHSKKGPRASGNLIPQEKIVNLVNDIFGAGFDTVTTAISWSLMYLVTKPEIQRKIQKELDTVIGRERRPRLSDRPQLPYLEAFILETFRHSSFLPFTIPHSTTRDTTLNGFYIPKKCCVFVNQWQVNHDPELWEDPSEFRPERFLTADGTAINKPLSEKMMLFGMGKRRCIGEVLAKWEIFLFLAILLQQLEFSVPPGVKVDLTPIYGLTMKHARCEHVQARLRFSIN

[3] = target: T3, CYP2B6 (Homo sapiens, UniProt P20813); assay: CYP inhibition in human liver microsomes; settings: human, human liver microsomes, probe bupropion
T3 sequence (P20813 1-491): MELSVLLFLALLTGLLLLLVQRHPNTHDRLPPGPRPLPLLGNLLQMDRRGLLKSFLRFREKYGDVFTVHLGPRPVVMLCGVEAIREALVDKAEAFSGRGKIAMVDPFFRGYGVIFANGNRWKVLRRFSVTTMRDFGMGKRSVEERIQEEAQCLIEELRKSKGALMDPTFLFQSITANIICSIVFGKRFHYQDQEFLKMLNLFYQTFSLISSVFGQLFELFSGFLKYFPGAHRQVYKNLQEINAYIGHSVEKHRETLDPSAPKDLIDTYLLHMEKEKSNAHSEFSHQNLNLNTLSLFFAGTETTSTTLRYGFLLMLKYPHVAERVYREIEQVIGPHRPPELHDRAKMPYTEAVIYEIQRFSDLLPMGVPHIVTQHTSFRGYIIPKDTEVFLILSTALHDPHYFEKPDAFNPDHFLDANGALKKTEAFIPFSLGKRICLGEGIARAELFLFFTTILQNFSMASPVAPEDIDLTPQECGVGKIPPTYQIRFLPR

[4] = target: T4, CYP2C8 (Homo sapiens, UniProt P10632); assay: CYP inhibition in human liver microsomes; settings: human, human liver microsomes, probe paclitaxel
T4 sequence (P10632 1-490): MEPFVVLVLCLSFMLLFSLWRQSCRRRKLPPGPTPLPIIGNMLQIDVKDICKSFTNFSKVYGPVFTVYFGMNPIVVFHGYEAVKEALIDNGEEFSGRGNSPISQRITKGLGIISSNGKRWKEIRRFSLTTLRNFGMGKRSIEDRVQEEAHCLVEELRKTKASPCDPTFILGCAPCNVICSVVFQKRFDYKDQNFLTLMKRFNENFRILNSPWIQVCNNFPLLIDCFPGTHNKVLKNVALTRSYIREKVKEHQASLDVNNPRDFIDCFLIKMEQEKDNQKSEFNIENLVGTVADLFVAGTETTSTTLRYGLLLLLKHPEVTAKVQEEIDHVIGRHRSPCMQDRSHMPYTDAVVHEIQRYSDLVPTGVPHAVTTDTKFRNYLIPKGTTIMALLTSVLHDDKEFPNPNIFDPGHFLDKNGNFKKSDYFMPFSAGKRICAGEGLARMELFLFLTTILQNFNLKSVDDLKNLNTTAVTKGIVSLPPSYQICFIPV

[5] = target: CYP2C9 (Homo sapiens, UniProt P11712); assay: CYP inhibition in human liver microsomes; settings: human
[6] = target: CYP2C19 (Homo sapiens, UniProt P33261); assay: CYP inhibition in human liver microsomes; settings: human, human liver microsomes, probe mephenytoin
[7] = test system: CYP1A2 mRNA; assay: CYP induction, mRNA, primary cultured human hepatocytes; assay type: in vitro ADME; settings: read-out: CYP1A2 mRNA Fold Induction (fold of vehicle control)
From the text: (§1) Rifampicin as a positive control and solvent (0.1% DMSO) vehicle control were also included. The acceptance criteria for CYP induction was ≥ 2-fold induction for significant CYP activity, while the acceptance criteria for CYP mRNA was ≥ 4-fold for significant CYP induction.

[8] = test system: CYP1A2; assay: CYP induction, in situ catalytic activity, human hepatocytes; assay type: in vitro ADME
From the text: as §1

[9] = test system: CYP2B6 mRNA; assay: CYP induction, mRNA, primary cultured human hepatocytes; settings: Fold Induction (CYP2B6 mRNA expression)
From the text: as §1

[10] = test system: CYP2B6; assay: as above; settings: Fold Induction (CYP2B6 mRNA expression), hepatocyte Lot 399, 1000 µM
From the text: as §1

[11] = test system: CYP2B6; assay: CYP induction, in situ catalytic activity, human hepatocytes
From the text: as §1

[12] = Phospholipidosis and steatosis, high content screening; assay type: cell-based; design: key to Cell count, Trend (↑↓) / Nuclear size, Trend (↑↓) / DNA structure, Trend (↑↓) / Phospholipidosis, Trend (↑↓) / Steatosis, Trend (↑↓): ↑: increasing trend of response; ↓: decreasing trend of response; settings: human, HepG2 cells
[13] = test system: HepG2 cells; assay: as above; assay type: cell-based; design: key to Cell count, Trend (↑↓) / Nuclear size, Trend (↑↓) / DNA structure, Trend (↑↓) / Phospholipidosis, Trend (↑↓) / Steatosis, Trend (↑↓): ↑: increasing trend of response; ↓: decreasing trend of response; settings: for Steatosis, MEC: (NS) = not statistically significant
[14] = target: CYP3A4 (Homo sapiens, UniProt P08684); assay: in vitro; settings: microsomes
[15] = target: CYP2D6 (Homo sapiens, UniProt P10635); assay: CYP inhibition in human liver microsomes; settings: human, human liver microsomes, probe bufuralol
[16] = test system: human hepatocytes; assay: MTT assay, hepatocyte viability; assay type: cell-based
[17] = # AC50 greater than the maximum surviving concentration, (NS) = not statistically significant, read-out: Steatosis, AC50
[18] = read-out: Phospholipidosis, AC50

Sequence of CYP2C19 (P33261 whole entry): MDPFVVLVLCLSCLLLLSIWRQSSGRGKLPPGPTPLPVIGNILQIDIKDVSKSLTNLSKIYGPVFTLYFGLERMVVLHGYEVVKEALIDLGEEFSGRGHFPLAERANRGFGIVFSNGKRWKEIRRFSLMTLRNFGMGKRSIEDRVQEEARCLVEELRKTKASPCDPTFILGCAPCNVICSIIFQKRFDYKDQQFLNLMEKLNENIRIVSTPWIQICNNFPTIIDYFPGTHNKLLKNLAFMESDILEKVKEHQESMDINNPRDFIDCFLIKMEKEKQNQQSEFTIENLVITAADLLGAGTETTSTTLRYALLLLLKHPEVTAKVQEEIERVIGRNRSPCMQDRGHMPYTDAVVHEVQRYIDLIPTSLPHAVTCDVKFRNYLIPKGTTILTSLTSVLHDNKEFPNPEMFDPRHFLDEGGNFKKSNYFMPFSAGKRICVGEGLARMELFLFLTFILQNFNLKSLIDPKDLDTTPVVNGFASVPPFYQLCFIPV
Sequence of CYP2C9 (P11712 whole entry): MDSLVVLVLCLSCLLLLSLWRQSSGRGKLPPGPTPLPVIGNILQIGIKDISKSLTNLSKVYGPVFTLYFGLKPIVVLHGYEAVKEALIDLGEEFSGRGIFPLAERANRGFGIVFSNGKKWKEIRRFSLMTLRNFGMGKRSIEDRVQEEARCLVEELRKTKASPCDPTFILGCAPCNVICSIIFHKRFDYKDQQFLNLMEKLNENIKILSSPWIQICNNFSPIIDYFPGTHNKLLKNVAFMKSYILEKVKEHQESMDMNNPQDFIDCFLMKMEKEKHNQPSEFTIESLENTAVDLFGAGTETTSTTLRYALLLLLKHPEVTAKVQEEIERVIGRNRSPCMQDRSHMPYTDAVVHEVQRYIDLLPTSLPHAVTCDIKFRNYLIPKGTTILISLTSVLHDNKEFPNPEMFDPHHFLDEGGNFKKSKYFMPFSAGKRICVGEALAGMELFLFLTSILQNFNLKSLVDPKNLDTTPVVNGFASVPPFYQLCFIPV
Sequence of CYP3A4 (P08684 2-503): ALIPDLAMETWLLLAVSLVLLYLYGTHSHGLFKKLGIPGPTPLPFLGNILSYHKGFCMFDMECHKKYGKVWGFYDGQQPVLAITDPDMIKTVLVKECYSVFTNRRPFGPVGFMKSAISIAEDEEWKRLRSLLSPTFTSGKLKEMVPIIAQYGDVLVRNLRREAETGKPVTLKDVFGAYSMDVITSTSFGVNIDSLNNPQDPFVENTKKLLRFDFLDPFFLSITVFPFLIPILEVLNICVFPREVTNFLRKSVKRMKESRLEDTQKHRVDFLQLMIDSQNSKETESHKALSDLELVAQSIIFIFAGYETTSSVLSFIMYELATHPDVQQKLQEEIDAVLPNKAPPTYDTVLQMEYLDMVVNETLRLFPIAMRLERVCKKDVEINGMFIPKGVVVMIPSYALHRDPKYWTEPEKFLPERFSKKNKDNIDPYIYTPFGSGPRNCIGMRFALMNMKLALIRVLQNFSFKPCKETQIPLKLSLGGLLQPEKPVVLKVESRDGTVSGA
Sequence of CYP2D6 (P10635 whole entry): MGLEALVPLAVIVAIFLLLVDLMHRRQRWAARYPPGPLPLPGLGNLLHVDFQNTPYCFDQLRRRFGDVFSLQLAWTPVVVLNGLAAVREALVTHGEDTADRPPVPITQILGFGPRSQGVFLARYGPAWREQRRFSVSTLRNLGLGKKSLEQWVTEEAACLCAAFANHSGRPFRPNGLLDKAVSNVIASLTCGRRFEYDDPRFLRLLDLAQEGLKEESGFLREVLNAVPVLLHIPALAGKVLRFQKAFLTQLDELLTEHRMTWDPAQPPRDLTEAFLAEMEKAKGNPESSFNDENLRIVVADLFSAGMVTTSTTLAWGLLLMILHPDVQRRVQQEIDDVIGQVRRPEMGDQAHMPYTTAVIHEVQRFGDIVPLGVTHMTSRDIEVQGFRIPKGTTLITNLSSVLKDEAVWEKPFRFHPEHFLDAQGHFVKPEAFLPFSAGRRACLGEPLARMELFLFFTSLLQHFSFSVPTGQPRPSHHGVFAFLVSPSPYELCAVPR

## CCc1cc(Cl)c(OC)c(N2CCN(C[C@H](O)CCNC(=O)c3cc4ccccc4[nH]3)CC2)c1 [(R)-VK4-116]
[1]; 0.01 µM
  Mean % inhibition on hKir2.1 (End): 8.24%
  Mean % inhibition on hKir2.1 (Peak): 9.54%
[1]; 0.1 µM
  Mean % inhibition on hKir2.1 (End): 12.22%
  Mean % inhibition on hKir2.1 (Peak): 14.42%
[1]; 1 µM
  Mean % inhibition on hKir2.1 (End): 16.36%
  Mean % inhibition on hKir2.1 (Peak): 19.01%
[1]; 10 µM
  Mean % inhibition on hKir2.1 (End): 18.23%
  Mean % inhibition on hKir2.1 (Peak): 21.58%
[1]; 100 µM
  Mean % inhibition on hKir2.1 (End): 97.19%
  Mean % inhibition on hKir2.1 (Peak): 52.64%

## [Ba+2].[Cl-].[Cl-] [Barium Chloride]
[1]; 1 µM
  Mean % inhibition on hKir2.1 (End): 11.87%
  Mean % inhibition on hKir2.1 (Peak): 6.70%
[1]; 3 µM
  Mean % inhibition on hKir2.1 (End): 30.43%
  Mean % inhibition on hKir2.1 (Peak): 11.92%
[1]; 10 µM
  Mean % inhibition on hKir2.1 (End): 55.57%
  Mean % inhibition on hKir2.1 (Peak): 17.51%
[1]; 30 µM
  Mean % inhibition on hKir2.1 (End): 85.21%
  Mean % inhibition on hKir2.1 (Peak): 27.21%
[1]; 100 µM
  Mean % inhibition on hKir2.1 (End): 89.33%
  Mean % inhibition on hKir2.1 (Peak): 45.99%

## CC(=O)N1CCN(c2ccc(OCC3COC(Cn4ccnc4)(c4ccc(Cl)cc4Cl)O3)cc2)CC1 (stereo not drawn) [Ketoconazole]
[2]
  activity at 20 min, 5 µM: 70.7 ± 2.2%
[3]
  activity at 20 min, 5 µM: 49.1 ± 0.7%
[4]
  activity at 20 min, 5 µM: 45.7 ± 4.7%
[5]; human liver microsomes, probe diclofenac
  activity at 20 min, 5 µM: 65.8 ± 1.9%
[6]
  activity at 20 min, 5 µM: 82.9 ± 2.8%

## COc1ccc2[nH]c([S+]([O-])Cc3ncc(C)c(OC)c3C)nc2c1 (stereo not drawn) [Omeprazole, reference compound]
[7]; Lot 336, 50 µM
  fold induction at 48 h, 50 µM: 115
[7]; Lot 348B, 50 µM
  fold induction at 48 h, 50 µM: 361
[7]; Lot 399, 50 µM
  fold induction at 48 h, 50 µM: 232
[8]; Lot 336, 50 µM
  CYP1A2 activity, Fold of Vehicle Control: 17 fold
[8]; Lot 348B, 50 µM
  CYP1A2 activity, Fold of Vehicle Control: 44 fold
[8]; Lot 399, 50 µM
  CYP1A2 activity, Fold of Vehicle Control: 23 fold
  Phenacetin-O- deethylation: 186 pmol/min/106 cells

## CCC1(c2ccccc2)C(=O)NC(=O)NC1=O [Phenobarbital]
[9]; hepatocyte Lot 336, 1000 µM
  fold induction at 48 h, 1000 µM: 11
[9]; hepatocyte Lot 348B, 1000 µM
  fold induction at 48 h, 1000 µM: 12
[10]
  fold induction at 48 h, 1000 µM: 11
[11]; hepatocyte Lot 336, 1000 µM
  Bupropion Hydroxylation: 3.6 pmol/min/106 cells
  Fold of Vehicle Control (CYP2B6 activity, bupropion hydroxylation): 4.0 fold
[11]; hepatocyte Lot 348B, 1000 µM
  Fold of Vehicle Control (CYP2B6 activity, bupropion hydroxylation): 8.6 fold
[11]; hepatocyte Lot 399, 1000 µM
  Fold of Vehicle Control (CYP2B6 activity, bupropion hydroxylation): 19 fold

## CN[C@H]1CC[C@@H](c2ccc(Cl)c(Cl)c2)c2ccccc21 [Sertraline]
[12]; [17]
  AC50: > 3.13 µM
[12]; read-out: Cell count, AC50
  AC50: 2.48 µM
[12]; read-out: DNA structure, AC50
  AC50: 6.23 µM
[12]; read-out: Nuclear size, AC50
  AC50: > 3.13 µM
[12]; [18]
  AC50: 0.351 µM
[13]
  Cell count, MEC: 1.61 µM
  Cell count, Trend (↑↓): ↓
  DNA structure, MEC: 0.876 µM
  DNA structure, Trend (↑↓): ↑
  Phospholipidosis, MEC: <0.0977 µM
  Phospholipidosis, Trend (↑↓): ↑
  Steatosis, Trend (↑↓): ↑
  Steatosis, MEC: 0.822 (NS) μM

## Nc1ccc(S(=O)(=O)Nc2ccnn2-c2ccccc2)cc1 [Sulfaphenazole]
[14]; CYP activity (% of Control) 3A4 (Midazolam)
  activity at 20 min, 3 µM: 98.7 ± 5.2%
[14]; CYP activity (% of Control) 3A4 (Testosterone)
  activity at 20 min, 3 µM: 95.9 ± 4.3%
[2]
  activity at 20 min, 3 µM: 98.1 ± 10.8%
[3]
  activity at 20 min, 3 µM: 100 ± 5.8%
[4]
  activity at 20 min, 3 µM: 97.6 ± 19.2%
[5]; microsomes
  activity at 20 min, 3 µM: 23.6 ± 3.3%
[6]
  activity at 20 min, 3 µM: 102 ± 6.5%
[15]
  activity at 20 min, 3 µM: 94.8 ± 7.2%

## CC/C(=C(\c1ccccc1)c1ccc(OCCN(C)C)cc1)c1ccccc1 [Tamoxifen]
[16]; 50 µM
  Hepatocyte Viability, MTT Assay Upfront (Mean): 4
[16]; Lot 336, 50 µM
  Hepatocyte Viability, Concurrent MTT Assay (Mean): 2
[16]; Lot 348B, 50 µM
  Hepatocyte Viability, Concurrent MTT Assay (Mean): 1
[16]; Lot 399, 50 µM
  Hepatocyte Viability, Concurrent MTT Assay (Mean): 7
[12]; [17]
  AC50: 16.9 µM
[12]; read-out: Cell count, AC50
  AC50: 0.442 µM
[12]; read-out: DNA structure, AC50
  AC50: 6.3 µM
[12]; read-out: Nuclear size, AC50
  AC50: 3.05 µM
[12]; [18]
  AC50: 0.764 µM
[13]
  Cell count, MEC: 0.360 µM
  Cell count, Trend (↑↓): ↑
  DNA structure, MEC: 2.57 µM
  DNA structure, Trend (↑↓): ↑
  Nuclear size, MEC: 0.672 µM
  Nuclear size, Trend (↑↓): ↓
  Phospholipidosis, MEC: 0.447 µM
  Steatosis, Trend (↑↓): ↑
  Steatosis, MEC: 4.38 µM
